In patent publication US20230014445A1, “ALLOSTERIC CHROMENONE INHIBITORS OF PHOSPHOINOSITIDE 3-KINASE (PI3K) FOR THE TREATMENT OF DISEASE” (Petra Pharma Corporation, priority 2021, published 2023):

What was measured:
[1] = biological target: T1, human full length PIK3KA Wild-type (p110α/p85α complex) (Homo sapiens, UniProt P42336); assay: PI3K-Alpha Kinase (PIK3CA) biochemical activity, wild-type (ADP-Glo); conditions: 20 uM ATP
T1 construct: Recombinant, catalytically active human full length PIK3KA Wild-type and H1047R mutant were purchased; 6xHis (N); purchased EMD Millipore Sigma 14-602M
Source text: (§1) PI3K-Alpha Kinase (PIK3CA) Activity, Wild-Type and H1047R Mutant and Determining IC50 Values for Inhibitors
(§2) Recombinant, catalytically active human full length PIK3KA Wild-type and H1047R mutant were purchased as 1:1 complex of N-terminal 6×his tagged p110α (catalytic) and untagged p85α, (regulatory subunit) from EMD Millipore Sigma (cat. no. 14-602M and 14-792M, respectively). PIP2diC8 (Avanti Polar Lipids Inc., cat. no. 850185) or Soy PI (Avanti Polar Lipids Inc., cat. No. 840044P) was used as lipid substrate. PIP2diC8 or PI lyophilized powder was dissolved in milliQ water to a concentration of 1 mM just before use. 10 mM stock compounds in DMSO were serially diluted 1:3 to generate a 10-point curve and plated using an acoustic liquid handler system (Echo 550 series instrument, Labcyte). A 10× intermediate compound plate (200 uM starting compound concentration and 10% DMSO) was prepared before starting the reaction. A typical reaction mixture (50 uL) comprised 40 mM HEPES buffer, pH 7.4, 25 mM MgCl2, 0.01% v/v triton-X-100, 1% v/v DMSO, 20 mM NaCl, 1-5 nM WT or H1047R PI3K protein, 20 uM ATP, and 50 uM PIP2diC8 or Soy PI. 1% DMSO buffer alone without test compound was employed as MAX control (full activity in the absence of any inhibitor), and no enzyme control was used to determine the level of background Adenosine 5′-diphosphate (ADP) (MIN control). First, Wild-type (WT) and H1047R mutant protein in kinase buffer with all components except ATP were incubated with or without compound at 27° C. for 1 h. After the pre-incubation, the reaction was initiated by the addition of […] (20 uM final concentration). The reaction was allowed to proceed until about 10% conversion of ATP (2 uM ADP) at 27° C. After that time, 5 uL of reaction was mixed with 5 uL of ADP-Kinase Glo Reagent (ADP-Glo Kinase assay kit, Promega cat. no. V9102) supplemented with MgCl2 10 mM to stop the reaction and deplete the remaining ATP for 40 min at room temperature. Then, 10 uL of Kinase Detection Reagent (ADP-Glo Kinase assay kit, Promega cat. no. V9102) was added to simultaneously convert ADP to ATP and allow the newly synthesized ATP to be measured using a luciferase/luciferin reaction. After 30 min at room temperature the light generated was measured using a luminometer (EnVision plate reader, Perkin Elmer). Process data through Genedata-Screener tool. Relative IC50 values are determined using luminescence units by calculating percent inhibition with respect to on-plate “MIN” and “MAX” controls. Data was analyzed using a 4-parameter nonlinear logistic equation (four-parameter logistic concentration-response curve):
(§3) Y=bot+[(top−bot)/1+(x/IC50)slope]
(§4) where Y=% inhibition, X=concentration yielding y % inhibition, Bottom=minimum value of y attained by curve, Top=maximum value of y attained by curve and Slope=steepness of curve at IC50.
(§5) % Inh=[(median Max−x/median Max−median Min)]·100
(§6) IC50: concentration of compound that reduces a given response (ligand binding, enzyme response) by 50%. IC50 relative: concentration giving half the compound's maximum response.
(§7) For IC50 values shown in Table A, “A” means IC50<0.5 μM; “B” means IC50 ranging between 0.5 μM and 1.0 μM; “C” means IC50 ranging between 1 μM and 5 μM; “D” means IC50 ranging between 5 μM and 10 μM; “E” means IC50>10 μM.

[2] = biological target: T2, human full length PIK3KA H1047R mutant (p110α/p85α complex) (Homo sapiens, UniProt P42336, H1047R); assay: PI3K-Alpha Kinase (PIK3CA) biochemical activity, H1047R mutant (ADP-Glo); conditions: 20 uM ATP
T2 construct: Recombinant, catalytically active human full length PIK3KA Wild-type and H1047R mutant were purchased; 6xHis (N); purchased EMD Millipore Sigma 14-792M
Source text: as §1, §2, §3, §4, §5, §6, §7

T2 sequence (P42336 whole entry H1047R): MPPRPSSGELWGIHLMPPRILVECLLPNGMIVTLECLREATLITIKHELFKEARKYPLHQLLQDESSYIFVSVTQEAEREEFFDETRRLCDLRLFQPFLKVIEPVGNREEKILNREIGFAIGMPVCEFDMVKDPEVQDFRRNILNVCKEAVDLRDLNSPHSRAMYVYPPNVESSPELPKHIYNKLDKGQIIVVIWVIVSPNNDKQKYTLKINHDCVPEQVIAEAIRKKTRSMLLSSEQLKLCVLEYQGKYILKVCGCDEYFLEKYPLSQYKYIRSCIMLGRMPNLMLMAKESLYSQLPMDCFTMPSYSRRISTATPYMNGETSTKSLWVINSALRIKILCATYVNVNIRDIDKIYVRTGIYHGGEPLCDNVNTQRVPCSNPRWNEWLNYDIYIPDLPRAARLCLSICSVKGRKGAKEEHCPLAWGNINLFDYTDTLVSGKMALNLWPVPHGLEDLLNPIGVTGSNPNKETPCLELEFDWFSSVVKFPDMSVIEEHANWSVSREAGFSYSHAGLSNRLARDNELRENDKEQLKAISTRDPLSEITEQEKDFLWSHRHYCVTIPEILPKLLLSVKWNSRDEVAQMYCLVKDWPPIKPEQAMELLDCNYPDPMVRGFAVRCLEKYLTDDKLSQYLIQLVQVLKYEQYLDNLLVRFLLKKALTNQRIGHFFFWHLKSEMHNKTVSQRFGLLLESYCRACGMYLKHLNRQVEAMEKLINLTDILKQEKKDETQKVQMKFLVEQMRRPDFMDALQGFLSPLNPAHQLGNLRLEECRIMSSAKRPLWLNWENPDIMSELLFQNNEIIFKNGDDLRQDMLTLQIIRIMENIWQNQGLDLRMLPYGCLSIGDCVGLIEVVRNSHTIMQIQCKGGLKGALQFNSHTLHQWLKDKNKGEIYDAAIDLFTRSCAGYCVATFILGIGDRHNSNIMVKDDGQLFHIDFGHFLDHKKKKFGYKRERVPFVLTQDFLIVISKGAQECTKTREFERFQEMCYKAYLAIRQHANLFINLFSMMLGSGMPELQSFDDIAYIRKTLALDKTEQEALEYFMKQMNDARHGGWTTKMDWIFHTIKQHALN
T2 sequence (P27986 whole entry partner): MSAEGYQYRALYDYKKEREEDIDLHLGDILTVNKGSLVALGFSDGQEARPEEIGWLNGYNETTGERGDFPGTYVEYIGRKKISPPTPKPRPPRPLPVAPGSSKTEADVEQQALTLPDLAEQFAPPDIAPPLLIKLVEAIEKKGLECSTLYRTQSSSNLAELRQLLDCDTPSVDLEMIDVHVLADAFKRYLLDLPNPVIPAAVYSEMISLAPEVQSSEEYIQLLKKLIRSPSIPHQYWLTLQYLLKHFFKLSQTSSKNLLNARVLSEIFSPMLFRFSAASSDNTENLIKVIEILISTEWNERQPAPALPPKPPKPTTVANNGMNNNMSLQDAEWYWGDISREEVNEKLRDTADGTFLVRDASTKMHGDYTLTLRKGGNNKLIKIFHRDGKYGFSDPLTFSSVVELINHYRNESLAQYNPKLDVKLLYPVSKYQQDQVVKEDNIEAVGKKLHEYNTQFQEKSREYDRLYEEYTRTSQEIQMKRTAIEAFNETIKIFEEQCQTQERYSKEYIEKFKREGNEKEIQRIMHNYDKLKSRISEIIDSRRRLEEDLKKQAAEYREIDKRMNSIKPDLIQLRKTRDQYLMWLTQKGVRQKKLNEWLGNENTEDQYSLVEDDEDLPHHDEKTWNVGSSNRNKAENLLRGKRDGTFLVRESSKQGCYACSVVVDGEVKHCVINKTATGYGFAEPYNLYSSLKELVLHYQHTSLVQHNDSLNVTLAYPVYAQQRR

`COc1ncc(-n2cc(-c3cc(=O)c4cc(C)cc(C(C)Nc5ccccc5C(=O)O)c4o3)cn2)cn1` (single isomer, unassigned) [Example 105, 2-[1-[2-[1-(2-Methoxypyrimidin-5-yl)pyrazol-4-yl]-6-methyl-4-oxo-chromen-8-yl]ethylamino]benzoic acid, Isomer 2,2,2,2-trifluoroacetic acid] was tested, and the IC50 ([1]; Soy PI lipid substrate) was > 10000 nM and the IC50 ([2]; Soy PI lipid substrate) was 500 to 1000 nM.

`Cc1cc(C(C)Nc2ccccc2C(=O)O)c2oc(-c3ccccn3)cc(=O)c2c1` (single isomer, unassigned; isomer 1) [Example 17, 2-[1-[6-Methyl-4-oxo-2-(2-pyridyl)chromen-8-yl]ethylamino]benzoic acid, Isomer 1] was tested, and the IC50 ([1]; Soy PI lipid substrate) was 1000 to 5000 nM and the IC50 ([2]; Soy PI lipid substrate) was < 500 nM.

In the case of `Cc1cc(C(C)Nc2ccccc2C(=O)O)c2oc(-c3cnccn3)cc(=O)c2c1` (single isomer, unassigned; isomer 2) [Example 16, 2-[1-(6-Methyl-4-oxo-2-pyrazin-2-yl-chromen-8-yl)ethylamino]benzoic acid, Isomer 2], the IC50 ([1]; PIP2diC8 lipid substrate) is reported as > 10000 nM and the IC50 ([2]; PIP2diC8 lipid substrate) is reported as > 10000 nM.

For `Cc1cc(C(C)Nc2ccccc2C(=O)O)c2oc(-n3nccn3)cc(=O)c2c1` (single isomer, unassigned) [Example 57, 2-[1-[6-Methyl-4-oxo-2-(triazol-2-yl)chromen-8-yl]ethylamino]benzoic acid, Isomer 2,2,2,2-trifluoroacetic acid], the IC50 ([1]; Soy PI lipid substrate) was > 10000 nM and the IC50 ([2]; Soy PI lipid substrate) was < 500 nM.

For `COc1cccc(-n2cc(-c3cc(=O)c4cc(C)cc(C(C)Nc5ccccc5C(=O)O)c4o3)cn2)c1` (single isomer, unassigned) [Example 53, 2-[1-[2-[1-(3-Methoxyphenyl)pyrazol-4-yl]-6-methyl-4-oxo-chromen-8-yl]ethylamino]benzoic acid, Isomer 2,2,2,2-trifluoroacetic acid], the IC50 ([1]; Soy PI lipid substrate) was 1000 to 5000 nM and the IC50 ([2]; Soy PI lipid substrate) was < 500 nM.

`COc1cc(-n2cc(-c3cc(=O)c4cc(C)cc(C(C)Nc5ccccc5C(=O)O)c4o3)cn2)ccc1C#N` (single isomer, unassigned) [Example 94, 2-[1-[2-[1-(4-Cyano-3-methoxy-phenyl)pyrazol-4-yl]-6-methyl-4-oxo-chromen-8-yl]ethylamino]benzoic acid, Isomer 2,2,2,2-trifluoroacetic acid] was tested, and the IC50 ([1]; Soy PI lipid substrate) was 1000 to 5000 nM and the IC50 ([2]; Soy PI lipid substrate) was < 500 nM.

For `Cc1cc(C(C)Nc2ccccc2C(=O)O)c2oc(-c3cnn(-c4ccc5c(c4)OC(F)(F)O5)c3)cc(=O)c2c1` (single isomer, unassigned) [Example 91, 2-[1-[2-[1-(2,2-Difluoro-1,3-benzodioxol-5-yl)pyrazol-4-yl]-6-methyl-4-oxo-chromen-8-yl]ethylamino]benzoic acid, Isomer 2,2,2,2-trifluoroacetic acid], the IC50 ([1]; Soy PI lipid substrate) was > 10000 nM and the IC50 ([2]; Soy PI lipid substrate) was 500 to 1000 nM.

In the case of `Cc1cc(C(C)Nc2ccccc2C(=O)O)c2oc(-c3ccc(F)nc3)cc(=O)c2c1` (centres unmarked) [Example 9, 2-[1-[2-(6-Fluoro-3-pyridyl)-6-methyl-4-oxo-chromen-8-yl]ethylamino]benzoic acid 2,2,2-trifluoroacetic acid], the IC50 ([1]; Soy PI lipid substrate) is reported as 5000 to 10000 nM and the IC50 ([2]; Soy PI lipid substrate) is reported as < 500 nM.

With `Cc1cc(C(C)Nc2ccccc2C(=O)O)c2oc(-c3ncccn3)cc(=O)c2c1` (single isomer, unassigned; isomer 2) [Example 3, 2-[1-(6-Methyl-4-oxo-2-pyrimidin-2-yl-chromen-8-yl)ethylamino]benzoic acid, Isomer 2] the IC50 ([1]; Soy PI lipid substrate) was > 10000 nM and the IC50 ([2]; Soy PI lipid substrate) was < 500 nM.

`Cc1cc(C(C)Nc2ccccc2C(=O)O)c2oc(-c3cnn(-c4ccc(C#N)cc4F)c3)cc(=O)c2c1` (single isomer, unassigned) [Example 104, 2-[1-[2-[1-(4-Cyano-2-fluoro-phenyl)pyrazol-4-yl]-6-methyl-4-oxo-chromen-8-yl]ethylamino]benzoic acid, Isomer 2,2,2,2-trifluoroacetic acid] was tested, and the IC50 ([1]; Soy PI lipid substrate) was > 10000 nM and the IC50 ([2]; Soy PI lipid substrate) was 500 to 1000 nM.

`CC(Nc1ccccc1C(=O)O)c1cc(C(F)(F)F)cc2c(=O)cc(-c3cnn(-c4ccc(C#N)cc4)c3)oc12` (single isomer, unassigned; isomer 1) [Example 99, 2-[1-2-[1-(4-Cyanophenyl)pyrazol-4-yl]-4-oxo-6-(trifluoromethyl)chromen-8-yl]ethylamino]benzoic acid, Isomer 1] was tested, and the IC50 ([1]; Soy PI lipid substrate) was 1000 to 5000 nM and the IC50 ([2]; Soy PI lipid substrate) was 500 to 1000 nM.

`Cc1cc(C(C)Nc2ccccc2C(=O)O)c2oc(-n3cccn3)cc(=O)c2c1` (single isomer, unassigned) [Example 58, 2-[1-(6-Methyl-4-oxo-2-pyrazol-1-yl-chromen-8-yl)ethylamino]benzoic acid, Isomer 2,2,2,2-trifluoroacetic acid] was tested, and the IC50 ([1]; Soy PI lipid substrate) was 5000 to 10000 nM and the IC50 ([2]; Soy PI lipid substrate) was < 500 nM.

For `Cc1cc(C(C)Nc2ccccc2C(=O)O)c2oc(-c3cnc(C4CC4)nc3)cc(=O)c2c1` (single isomer, unassigned; isomer 2) [Example 26, 2-[1-[2-(2-Cyclopropylpyrimidin-5-yl)-6-methyl-4-oxo-chromen-8-yl]ethylamino]benzoic acid, Isomer 2], the IC50 ([1]; Soy PI lipid substrate) was 5000 to 10000 nM and the IC50 ([2]; Soy PI lipid substrate) was < 500 nM.

`Cc1cc(C(C)Nc2ccccc2C(=O)O)c2oc(-c3ccc(OC(C)C)nc3)cc(=O)c2c1` (centres unmarked) [Example 1, 2-[1-[2-(6-Isopropoxy-3-pyridyl)-6-methyl-4-oxo-chromen-8-yl]ethylamino]benzoic acid 2,2,2-trifluoroacetic acid] was tested, and the IC50 ([1]; Soy PI lipid substrate) was > 10000 nM and the IC50 ([2]; Soy PI lipid substrate) was 500 to 1000 nM.

`COc1ccc(-c2cc(=O)c3cc(C)cc(C(C)Nc4ccccc4C(=O)O)c3o2)cn1` (single isomer, unassigned; isomer 2) [Example 20, 2-[1-[2-(6-Methoxy-3-pyridyl)-6-methyl-4-oxo-chromen-8-yl]ethylamino]benzoic acid, Isomer 2] was tested, and the IC50 ([1]; Soy PI lipid substrate) was 1000 to 5000 nM and the IC50 ([2]; Soy PI lipid substrate) was < 500 nM.

`Cc1cc(C(C)Nc2ccccc2C(=O)O)c2oc(-c3cnn(-c4ccc(S(C)(=O)=O)cc4)c3)cc(=O)c2c1` (single isomer, unassigned) [Example 88, 2-[1-[6-Methyl-2-[1-(4-methylsulfonylphenyl)pyrazol-4-yl]-4-oxo-chromen-8-yl]ethylamino]benzoic acid, Isomer 2,2,2,2-trifluoroacetic acid] was tested, and the IC50 ([1]; Soy PI lipid substrate) was 1000 to 5000 nM and the IC50 ([2]; Soy PI lipid substrate) was < 500 nM.

For `Cc1cc(C(C)Nc2ccccc2C(=O)O)c2oc(-c3cnn(-c4cccnc4)c3)cc(=O)c2c1` (single isomer, unassigned; isomer 2) [Example 50, 2-[1-[6-Methyl-4-oxo-2-[1-(3-pyridyl)pyrazol-4-yl]chromen-8-yl]ethylamino]benzoic acid, Isomer 2], the IC50 ([1]; Soy PI lipid substrate) was 1000 to 5000 nM and the IC50 ([2]; Soy PI lipid substrate) was < 500 nM.

`Cc1cc(C(C)Nc2ccccc2C(=O)O)c2oc(-c3ccc(C(F)(F)F)nc3)cc(=O)c2c1` (centres unmarked) [Example 8, 2-[1-[6-Methyl-4-oxo-2-[6-(trifluoromethyl)-3-pyridyl]chromen-8-yl]ethylamino]benzoic acid 2,2,2-trifluoroacetic acid] was tested, and the IC50 ([1]; Soy PI lipid substrate) was 5000 to 10000 nM and the IC50 ([2]; Soy PI lipid substrate) was < 500 nM.

With `Cc1cc(C(C)Nc2ccccc2C(=O)O)c2oc(-c3cnn(-c4ccc(OC(F)(F)F)cc4)c3)cc(=O)c2c1` (single isomer, unassigned) [Example 93, 2-[1-[6-Methyl-4-oxo-2-[1-[4-(trifluoromethoxy)phenyl]pyrazol-4-yl]chromen-8-yl]ethylamino]benzoic acid, Isomer 2,2,2,2-trifluoroacetic acid] the IC50 ([1]; Soy PI lipid substrate) was > 10000 nM and the IC50 ([2]; Soy PI lipid substrate) was 500 to 1000 nM.
